The values below come from ChEMBL document CHEMBL1153012, “Synthesis and antibacterial activity of novel 5-(4-methyl-1H-1,2,3-triazole) methyl oxazolidinones” (2009).

Common to all, as to format: functional
For experiment [1], the system named is Haemophilus influenzae. As to the kind of experiment: Antibacterial activity against Haemophilus influenzae isolate 282 by agar dilution method. For orientation: Agar dilution tests growth on a series of plates holding different concentrations.
Experiment [2] concerns Streptococcus pneumoniae. As to the kind of experiment: Antibacterial activity against Streptococcus pneumoniae by agar dilution method.
Experiment [3] has as its system Enterococcus. As to the kind of experiment: Antibacterial activity against vancomycin-resistant Enterococcus by agar dilution method.
Experiment [4] relates to Staphylococcus aureus. As to the kind of experiment: Antibacterial activity against methicillin-susceptible Staphylococcus aureus by agar dilution method.
Experiment [5] relates to Haemophilus influenzae. As to the kind of experiment: Antibacterial activity against Haemophilus influenzae isolate 283 by agar dilution method.
The subject of experiment [6] is Enterococcus. As to the kind of experiment: Antibacterial activity against vancomycin-sensitive Enterococcus by agar dilution method.
Experiment [7] concerns Staphylococcus. As to the kind of experiment: Antibacterial activity against methicillin-sensitive coagulase-negative Staphylococcus by agar dilution method.
The subject of experiment [8] is Moraxella catarrhalis. Nature of the experiment: Antibacterial activity against Moraxella catarrhalis by agar dilution method.
The test system of experiment [9] is Haemophilus influenzae. As to the kind of experiment: Antibacterial activity against Haemophilus influenzae isolate 280 by agar dilution method.
Experiment [10] concerns Escherichia coli. As to the kind of experiment: Antibacterial activity against Escherichia coli ATCC 25922 by agar dilution method.
Experiment [11] relates to Staphylococcus. As to the kind of experiment: Antibacterial activity against methicillin resistant coagulase-negative Staphylococcus by agar dilution method.
Experiment [12] deals with Haemophilus influenzae. As to the kind of experiment: Antibacterial activity against Haemophilus influenzae isolate 285 by agar dilution method.
The test system of experiment [13] is Staphylococcus aureus. As to the kind of experiment: Antibacterial activity against Staphylococcus aureus ATCC 25923 by agar dilution method.
The test system of experiment [14] is Staphylococcus aureus. As to the kind of experiment: Antibacterial activity against Staphylococcus aureus ATCC 25923 by agar dilution method in presence of human plasma. To be noted: ATCC 25923, Plasma.
The subject of experiment [15] is Staphylococcus aureus. As to the kind of experiment: Antibacterial activity against methicillin-resistant Staphylococcus aureus by agar dilution method.
In experiment [16] the test system is Haemophilus influenzae. As to the kind of experiment: Antibacterial activity against Haemophilus influenzae ATCC 49247 by agar dilution method.

Values after ≈ are worked out from the molar mass of the structure shown.

Consider `O=C1O[C@@H](Cn2ccnn2)CN1c1ccc(N2CCOCC2)c(F)c1`, for which the MIC in [1] was determined as 32 µg/mL (≈ 92.1 µM); in experiment [2], 0.5 µg/mL (≈ 1.44 µM); in [3], 1 µg/mL (≈ 2.88 µM); in experiment [4], 0.5 µg/mL (≈ 1.44 µM); in experiment [5], 32 µg/mL (≈ 92.1 µM); in experiment [6] it was 0.5 µg/mL (≈ 1.44 µM). The MIC in experiment [7] was 0.5 µg/mL (≈ 1.44 µM); in experiment [8], above 16 µg/mL; in experiment [9] it was 32 µg/mL (≈ 92.1 µM); in experiment [10], above 64 µg/mL; in [11], 0.5 µg/mL (≈ 1.44 µM); in experiment [12] it was 32 µg/mL (≈ 92.1 µM). Moreover, the MIC in experiment [13] came out at 1 µg/mL (≈ 2.88 µM); in experiment [14], 1 µg/mL; in experiment [15] it was 0.5 µg/mL (≈ 1.44 µM); in [16], 32 µg/mL (≈ 92.1 µM).

With `Cc1cn(C[C@H]2CN(c3ccc(N4CCN(C(=O)CC5CC6CCC5C6)CC4)c(F)c3)C(=O)O2)nn1` (stereo not given in full), the MIC was above 64 µg/mL in experiment [1]; 16 µg/mL (≈ 32.2 µM) in experiment [2]; 2 µg/mL (≈ 4.03 µM) in [3]; 2 µg/mL (≈ 4.03 µM) in [4]; above 64 µg/mL in experiment [5]; 2 µg/mL (≈ 4.03 µM) in [6]. Besides, the MIC is 2 µg/mL (≈ 4.03 µM) in experiment [7]; 64 µg/mL (≈ 129 µM) in experiment [8]; above 64 µg/mL in [9]; above 64 µg/mL in [10]; 2 µg/mL (≈ 4.03 µM) in experiment [11]; above 64 µg/mL in [12]. The MIC is 4 µg/mL (≈ 8.05 µM) in [13], above 64 µg/mL in experiment [14], 4 µg/mL (≈ 8.05 µM) in experiment [15] and above 64 µg/mL in [16].

Consider `Cc1cn(C[C@H]2CN(c3ccc(N4CCN(C(=O)C5CCCC5)CC4)c(F)c3)C(=O)O2)nn1`, for which the MIC in experiment [1] stood at 32 µg/mL (≈ 70.1 µM); in experiment [2], 4 µg/mL (≈ 8.76 µM); in [3] it was 2 µg/mL (≈ 4.38 µM); in [4], 2 µg/mL (≈ 4.38 µM); in experiment [5] it was 32 µg/mL (≈ 70.1 µM); in experiment [6] it was 2 µg/mL (≈ 4.38 µM). The MIC is 2 µg/mL (≈ 4.38 µM) in experiment [7]; 32 µg/mL (≈ 70.1 µM) in [8]; 32 µg/mL (≈ 70.1 µM) in [9]; above 64 µg/mL in experiment [10]; 2 µg/mL (≈ 4.38 µM) in [11]; 32 µg/mL (≈ 70.1 µM) in experiment [12]. The MIC in experiment [13] is 4 µg/mL (≈ 8.76 µM); in experiment [14], 32 µg/mL; in experiment [15], 2 µg/mL (≈ 4.38 µM); in [16] it was 32 µg/mL (≈ 70.1 µM).

Take `Cc1cn(C[C@H]2CN(c3ccc(N4CCN(C=O)CC4)c(F)c3)C(=O)O2)nn1`: the MIC in experiment [1] is 64 µg/mL (≈ 165 µM); in experiment [2], 1 µg/mL (≈ 2.57 µM); in experiment [3], 1 µg/mL (≈ 2.57 µM); in experiment [4], 1 µg/mL (≈ 2.57 µM); in [5], 64 µg/mL (≈ 165 µM); in [6], 1 µg/mL (≈ 2.57 µM). For the same compound, the MIC in [7] is 1 µg/mL (≈ 2.57 µM); in [8], 8 µg/mL (≈ 20.6 µM); in experiment [9], 64 µg/mL (≈ 165 µM); in experiment [10] it was above 64 µg/mL; in experiment [11] it was 1 µg/mL (≈ 2.57 µM); in experiment [12] it was 64 µg/mL (≈ 165 µM). Moreover, the MIC came to 2 µg/mL (≈ 5.15 µM) in experiment [13], 8 µg/mL in experiment [14], 1 µg/mL (≈ 2.57 µM) in experiment [15] and 64 µg/mL (≈ 165 µM) in experiment [16].

As to `CCCCCC(=O)N1CCN(c2ccc(N3C[C@H](Cn4cc(C)nn4)OC3=O)cc2F)CC1`, the MIC in experiment [1] is above 64 µg/mL; in [2] it was 8 µg/mL (≈ 17.4 µM); in experiment [3], 2 µg/mL (≈ 4.36 µM); in experiment [4] it was 2 µg/mL (≈ 4.36 µM); in [5] it was above 64 µg/mL; in experiment [6] it was 2 µg/mL (≈ 4.36 µM). In addition, the MIC was 2 µg/mL (≈ 4.36 µM) in experiment [7]; above 64 µg/mL in experiment [8]; above 64 µg/mL in experiment [9]; above 64 µg/mL in [10]; 2 µg/mL (≈ 4.36 µM) in [11]; above 64 µg/mL in experiment [12]. In addition, the MIC in experiment [13] is 4 µg/mL (≈ 8.72 µM); in [14], above 64 µg/mL; in experiment [15] it was 4 µg/mL (≈ 8.72 µM); in [16], above 64 µg/mL.
